Patent publication US9850283B2, “Macrocyclic inhibitors of the PD-1/PD-L1 and CD80(B7-1)/PD-L1 protein/protein interactions” (BRISTOL-MYERS SQUIBB COMPANY, priority 2013, dated 2017)
Starred links: 1 amine or outer side, 2 acyl side, 3 side chain; linkers in the order of their positions; H or OH if unused. Positions of bridges follow the written chain, without caps; N, C: chain ends. Non-standard residues stand in square brackets, D forms with d. Residues, ends and D or L forms follow the SMILES beside them. Phe(3,4,5-F3) = N[C@@H](Cc1cc(F)c(F)c(F)c1)C(=O)O; X1 = C[C@@H]1C[C@H](C(=O)[*:2])N([*:1])C1; d(cisHyp) = O=C(O)[C@H]1C[C@@H](O)CN1; dDopa = N[C@H](Cc1ccc(O)c(O)c1)C(=O)O; NMeF = CN[C@@H](Cc1ccccc1)C(=O)O; dHyp = O=C(O)[C@H]1C[C@H](O)CN1; dNMeE = CN[C@H](CCC(=O)O)C(=O)O; NMeNle = CCCC[C@H](NC)C(=O)O; dPip = O=C(O)[C@H]1CCCCN1; dAze = O=C(O)[C@H]1CCN1; Sar = CNCC(=O)O

What was measured:
[1] = biological target: T1, LK35.2-hPD-L1 cells / PE-labeled PD-1-Ig (Homo sapiens, UniProt Q9NZQ7); test: LK35.2-hPD-L1 cell binding high-content screening assay; assay type: cell-based; details: cell binding assay, cell line not given; cluster symbol; read-out: CBA IC50 cluster
T1 construct: expressed in transfected cells; host or cells: LK35.2 mouse B cell line
T1 sequence (Q9NZQ7 19-290): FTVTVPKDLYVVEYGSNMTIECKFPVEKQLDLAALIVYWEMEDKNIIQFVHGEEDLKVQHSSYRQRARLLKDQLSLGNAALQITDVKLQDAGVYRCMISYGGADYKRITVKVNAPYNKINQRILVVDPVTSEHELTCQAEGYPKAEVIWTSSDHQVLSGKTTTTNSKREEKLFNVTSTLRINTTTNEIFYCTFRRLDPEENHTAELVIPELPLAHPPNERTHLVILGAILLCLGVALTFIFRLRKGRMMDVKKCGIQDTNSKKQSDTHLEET
Outline: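 Readout: high-content imaging of PE-PD-1-Ig bound to LK35.2-hPD-L1 cells. Cells plated overnight (RPMI/10% FCS); compound + 1 nM PE-PD-1-Ig, 1 h, 37 °C; 3× dPBS wash before imaging.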

Human PD-L1/PD-1 = biological target: T2, Human PD-L1/PD-1 (Homo sapiens, UniProt Q9NZQ7); test: HTRF PD-1-Ig/PD-L1-His binding assay (human PD-L1); details: cluster symbol; read-out: HTRF IC50 cluster
T2 construct: made in house; host or cells: HEK293T
T2 sequence (Q9NZQ7 with tags, fused parts or gaps): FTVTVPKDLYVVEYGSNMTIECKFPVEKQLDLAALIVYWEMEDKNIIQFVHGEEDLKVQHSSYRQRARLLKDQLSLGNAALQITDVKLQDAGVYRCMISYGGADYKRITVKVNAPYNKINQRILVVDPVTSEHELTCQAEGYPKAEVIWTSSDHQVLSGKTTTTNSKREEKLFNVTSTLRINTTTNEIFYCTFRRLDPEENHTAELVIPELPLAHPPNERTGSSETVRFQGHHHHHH
Outline: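 Readout: time-resolved FRET between Eu cryptate-labeled anti-Ig (1 nM final) and APC-labeled anti-His (20 nM final) antibodies. These detect interaction of Fc-fused PD-1 with His-tagged human PD-L1 in dPBS containing 0.1% BSA and 0.05% Tween-20.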

Row | SMILES | IC50 [1] | IC50 (Human PD-L1/PD-1)
1 | CCCC[C@H]1C(=O)N2CCCC[C@@H]2C(=O)N[C@@H](CC(=O)O)C(=O)N[C@@H](C(C)C)C(=O)N(C)[C@@H](Cc2ccccc2)C(=O)N[C@@H](Cc2ccc(O)cc2)C(=O)N(C)CC(=O)N[C@@H](Cc2c[nH]c3ccccc23)C(=O)N[C@@H](Cc2ccc(O)cc2)C(=O)N[C@@H](CC(C)C)C(=O)N[C@H](C(=O)NCC(N)=O)CSCC(=O)N[C@@H](Cc2ccccc2)C(=O)N(C)[C@@H](Cc2ccccc2)C(=O)N1C [Example 3573] ({CH2CO}-F[NMeF][NMeNle][dPip]DV[NMeF]Y[Sar]WYLCG-NH2; thioether N-13) | 4.78 to 72.9 nM | 6.76 to 30.3 nM
2 | CCCC[C@H]1C(=O)N2CCC[C@@H]2C(=O)N[C@@H](CC(=O)O)C(=O)N[C@@H](C(C)C)C(=O)N(C)[C@@H](Cc2ccccc2)C(=O)N[C@@H](Cc2ccc(O)cc2)C(=O)N2CCC[C@@H]2C(=O)N[C@@H](Cc2c[nH]c3ccccc23)C(=O)N[C@@H](Cc2ccc(O)cc2)C(=O)N[C@@H](CC(C)C)C(=O)N[C@H](C(=O)NCC(N)=O)CSCC(=O)N[C@@H](Cc2ccccc2)C(=O)N(C)[C@@H](Cc2ccccc2)C(=O)N1C [Example 3574] (HELM PEPTIDE1{[O=C(C[*:3])[*:2]].F.[meF].[CCCC[C@@H](C(=O)[*:2])N(C)[*:1]].[dP].D.V.[meF].Y.[dP].W.Y.L.C.G.[am]}$PEPTIDE1,PEPTIDE1,1:R3-14:R3$$$V2.0) | 0.158 to 4.71 nM | 6.76 to 30.3 nM
3 | CCCC[C@H]1C(=O)N(C)CC(=O)N[C@@H](CC(=O)O)C(=O)N[C@@H](C(C)C)C(=O)N(C)[C@@H](Cc2ccccc2)C(=O)N[C@@H](Cc2ccc(O)cc2)C(=O)N2CC[C@@H]2C(=O)N[C@@H](Cc2c[nH]c3ccccc23)C(=O)N[C@@H](Cc2ccc(O)cc2)C(=O)N[C@@H](CC(C)C)C(=O)N[C@H](C(=O)NCC(N)=O)CSCC(=O)N[C@@H](Cc2ccccc2)C(=O)N(C)[C@@H](Cc2ccccc2)C(=O)N1C [Example 3577] ({CH2CO}-F[NMeF][NMeNle][Sar]DV[NMeF]Y[dAze]WYLCG-NH2; thioether N-13) | 0.158 to 4.71 nM | 0.385 to 6.74 nM
4 | CCCC[C@H]1C(=O)N(C)CC(=O)N[C@@H](CC(=O)O)C(=O)N[C@@H](C(C)C)C(=O)N(C)[C@@H](Cc2ccccc2)C(=O)N[C@@H](Cc2ccc(O)cc2)C(=O)N(C)CC(=O)N[C@@H](Cc2c[nH]c3ccccc23)C(=O)N[C@H](Cc2ccc(O)c(O)c2)C(=O)N[C@@H](CC(C)C)C(=O)N[C@H](C(=O)NCC(N)=O)CSCC(=O)N[C@@H](Cc2ccccc2)C(=O)N(C)[C@@H](Cc2ccccc2)C(=O)N1C [Example 3579] ({CH2CO}-F[NMeF][NMeNle][Sar]DV[NMeF]Y[Sar]W[dDopa]LCG-NH2; thioether N-13) | 0.158 to 4.71 nM | 6.76 to 30.3 nM
5 | CCCC[C@H]1C(=O)N2C[C@H](O)C[C@@H]2C(=O)N[C@@H](CC(N)=O)C(=O)N[C@@H](C(C)C)C(=O)N(C)[C@@H](Cc2ccccc2)C(=O)N[C@@H](Cc2ccc(O)cc2)C(=O)N2CCCC[C@@H]2C(=O)N[C@@H](Cc2c[nH]c3ccccc23)C(=O)N[C@@H](Cc2ccc(O)cc2)C(=O)N[C@@H](CCCCN)C(=O)N[C@H](C(=O)NCC(N)=O)CSCC(=O)N[C@@H](Cc2cc(F)c(F)c(F)c2)C(=O)N(C)[C@@H](Cc2ccccc2)C(=O)N1C [Example 3589] ({CH2CO}-[Phe(3,4,5-F3)][NMeF][NMeNle][d(cisHyp)]NV[NMeF]Y[dPip]WYKCG-NH2; thioether N-13) | 0.158 to 4.71 nM | 0.385 to 6.74 nM
6 | CCCC[C@H]1C(=O)N2C[C@@H](O)C[C@@H]2C(=O)N[C@@H](CC(N)=O)C(=O)N[C@@H](C(C)C)C(=O)N(C)[C@@H](Cc2ccccc2)C(=O)N[C@@H](Cc2ccc(O)cc2)C(=O)N2CCCC[C@@H]2C(=O)N[C@@H](Cc2c[nH]c3ccccc23)C(=O)N[C@@H](Cc2ccc(O)cc2)C(=O)N[C@@H](CCCCN)C(=O)N[C@H](C(=O)NCC(N)=O)CSCC(=O)N[C@@H](Cc2cc(F)c(F)c(F)c2)C(=O)N(C)[C@@H](Cc2ccccc2)C(=O)N1C [Example 3591] ({CH2CO}-[Phe(3,4,5-F3)][NMeF][NMeNle][dHyp]NV[NMeF]Y[dPip]WYKCG-NH2; thioether N-13) | 0.158 to 4.71 nM | 0.385 to 6.74 nM
7 | CCCC[C@H]1C(=O)N(C)[C@H](CCC(=O)O)C(=O)N[C@@H](CC(N)=O)C(=O)N[C@@H](C(C)C)C(=O)N(C)[C@@H](Cc2ccccc2)C(=O)N[C@@H](Cc2ccc(O)cc2)C(=O)N2CCCC[C@@H]2C(=O)N[C@@H](Cc2c[nH]c3ccccc23)C(=O)N[C@@H](Cc2ccc(O)cc2)C(=O)N[C@@H](CCCCN)C(=O)N[C@H](C(=O)NCC(N)=O)CSCC(=O)N[C@@H](Cc2ccccc2)C(=O)N(C)[C@@H](Cc2ccccc2)C(=O)N1C [Example 3593] ({CH2CO}-F[NMeF][NMeNle][dNMeE]NV[NMeF]Y[dPip]WYKCG-NH2; thioether N-13) | 0.158 to 4.71 nM | 0.385 to 6.74 nM
8 | CCCC[C@H]1C(=O)N2C[C@H](O)C[C@@H]2C(=O)N[C@@H](CC(N)=O)C(=O)N[C@@H](C(C)C)C(=O)N(C)[C@@H](Cc2ccccc2)C(=O)N[C@@H](Cc2ccc(O)cc2)C(=O)N(C)[C@H](CCC(=O)O)C(=O)N[C@@H](Cc2c[nH]c3ccccc23)C(=O)N[C@@H](Cc2ccc(O)cc2)C(=O)N[C@@H](CCCCN)C(=O)N[C@H](C(=O)NCC(N)=O)CSCC(=O)N[C@@H](Cc2ccccc2)C(=O)N(C)[C@@H](Cc2ccccc2)C(=O)N1C [Example 3594] ({CH2CO}-F[NMeF][NMeNle][d(cisHyp)]NV[NMeF]Y[dNMeE]WYKCG-NH2; thioether N-13) | 0.158 to 4.71 nM | 6.76 to 30.3 nM

The remaining lines, values ahead:

Row | IC50 [1] | IC50 (Human PD-L1/PD-1) | SMILES
9 | 0.158 to 4.71 nM | 0.385 to 6.74 nM | CCCC[C@H]1C(=O)N2C[C@H](O)C[C@@H]2C(=O)N[C@@H](CC(=O)O)C(=O)N[C@@H](C(C)C)C(=O)N(C)[C@@H](Cc2ccccc2)C(=O)N[C@@H](Cc2ccc(O)cc2)C(=O)N(C)CC(=O)N[C@@H](Cc2c[nH]c3ccccc23)C(=O)N[C@@H](Cc2ccc(O)cc2)C(=O)N[C@@H](CC(C)C)C(=O)N[C@H](C(=O)NCC(N)=O)CSCC(=O)N[C@@H](Cc2ccccc2)C(=O)N(C)[C@@H](Cc2ccccc2)C(=O)N1C [Example 3575] ({CH2CO}-F[NMeF][NMeNle][d(cisHyp)]DV[NMeF]Y[Sar]WYLCG-NH2; thioether N-13)
10 | 4.78 to 72.9 nM | 6.76 to 30.3 nM | CCCC[C@H]1C(=O)N(C)CC(=O)N[C@@H](CC(=O)O)C(=O)N[C@@H](C(C)C)C(=O)N(C)[C@@H](Cc2ccccc2)C(=O)N[C@@H](Cc2ccc(O)cc2)C(=O)N2C[C@@H](O)C[C@@H]2C(=O)N[C@@H](Cc2c[nH]c3ccccc23)C(=O)N[C@@H](Cc2ccc(O)cc2)C(=O)N[C@@H](CC(C)C)C(=O)N[C@H](C(=O)NCC(N)=O)CSCC(=O)N[C@@H](Cc2ccccc2)C(=O)N(C)[C@@H](Cc2ccccc2)C(=O)N1C [Example 3576] ({CH2CO}-F[NMeF][NMeNle][Sar]DV[NMeF]Y[dHyp]WYLCG-NH2; thioether N-13)
11 | 0.158 to 4.71 nM | 0.385 to 6.74 nM | CCCC[C@H]1C(=O)N(C)CC(=O)N[C@@H](CC(=O)O)C(=O)N[C@@H](C(C)C)C(=O)N(C)[C@@H](Cc2ccccc2)C(=O)N[C@@H](Cc2ccc(O)cc2)C(=O)N2C[C@H](C)C[C@@H]2C(=O)N[C@@H](Cc2c[nH]c3ccccc23)C(=O)N[C@@H](Cc2ccc(O)cc2)C(=O)N[C@@H](CC(C)C)C(=O)N[C@H](C(=O)NCC(N)=O)CSCC(=O)N[C@@H](Cc2ccccc2)C(=O)N(C)[C@@H](Cc2ccccc2)C(=O)N1C [Example 3578] ({CH2CO}-F[NMeF][NMeNle][Sar]DV[NMeF]Y[X1]WYLCG-NH2; thioether N-13)
12 | 0.158 to 4.71 nM | 0.385 to 6.74 nM | CCCC[C@H]1C(=O)N2C[C@H](C)C[C@@H]2C(=O)N[C@@H](CC(=O)O)C(=O)N[C@@H](C(C)C)C(=O)N(C)[C@@H](Cc2ccccc2)C(=O)N[C@@H](Cc2ccc(O)cc2)C(=O)N(C)CC(=O)N[C@@H](Cc2c[nH]c3ccccc23)C(=O)N[C@@H](Cc2ccc(O)cc2)C(=O)N[C@@H](CC(C)C)C(=O)N[C@H](C(=O)NCC(N)=O)CSCC(=O)N[C@@H](Cc2ccccc2)C(=O)N(C)[C@@H](Cc2ccccc2)C(=O)N1C [Example 3580] ({CH2CO}-F[NMeF][NMeNle][X1]DV[NMeF]Y[Sar]WYLCG-NH2; thioether N-13)
13 | 4.78 to 72.9 nM | 6.76 to 30.3 nM | CCCC[C@H]1C(=O)N2CC[C@@H]2C(=O)N[C@@H](CC(=O)O)C(=O)N[C@@H](C(C)C)C(=O)N(C)[C@@H](Cc2ccccc2)C(=O)N[C@@H](Cc2ccc(O)cc2)C(=O)N(C)CC(=O)N[C@@H](Cc2c[nH]c3ccccc23)C(=O)N[C@@H](Cc2ccc(O)cc2)C(=O)N[C@@H](CC(C)C)C(=O)N[C@H](C(=O)NCC(N)=O)CSCC(=O)N[C@@H](Cc2ccccc2)C(=O)N(C)[C@@H](Cc2ccccc2)C(=O)N1C [Example 3582] ({CH2CO}-F[NMeF][NMeNle][dAze]DV[NMeF]Y[Sar]WYLCG-NH2; thioether N-13)
14 | 0.158 to 4.71 nM | 6.76 to 30.3 nM | CCCC[C@H]1C(=O)N2C[C@@H](O)C[C@@H]2C(=O)N[C@@H](CC(=O)O)C(=O)N[C@@H](C(C)C)C(=O)N(C)[C@@H](Cc2ccccc2)C(=O)N[C@@H](Cc2ccc(O)cc2)C(=O)N(C)CC(=O)N[C@@H](Cc2c[nH]c3ccccc23)C(=O)N[C@@H](Cc2ccc(O)cc2)C(=O)N[C@@H](CC(C)C)C(=O)N[C@H](C(=O)NCC(N)=O)CSCC(=O)N[C@@H](Cc2ccccc2)C(=O)N(C)[C@@H](Cc2ccccc2)C(=O)N1C [Example 3588] ({CH2CO}-F[NMeF][NMeNle][dHyp]DV[NMeF]Y[Sar]WYLCG-NH2; thioether N-13)
